Laboratory results from patent publication US20140255402A1 (priority 2013, published 2014).

Test system: NALM/6 cells
Parameters: species or system mice
Details: mouse, in vivo

For `Nc1ccn([C@@H]2O[C@H](CO)[C@@H](O)[C@@H]2O)c(=O)n1` [Ara-C, Cytarabine], the “Survival difference as compared to placebo” value was “no significant survival difference”.
